Data reported in US20100297261A1, “Food Product and Fortification System Therefor” (priority 2005, published 2010).

Legend:
[1] = humans; split by hydrolases in the small intestine; cited from earlier work
[2] = guinea pigs; split by α-glucosidase in brush border of small intestine; cited from earlier work
[3] = In vitro estimation of iron dialyzability (dough, simulated gastrointestinal conditions)
Description: All glass vessels used were incubated over night in 10% (v/v) HNO3 in water and subsequently rinsed with demineralised water. […] The dough was divided in portions of 16 g and stored at −20° C. until dissolution experiments took place.
The dough portions were suspended in water and homogenized for 10 s with a Braun Blender (type 4142) set at maximum speed. Subsequently, water, 0.45 g pepsin and HCl were added to a yield a 90 ml suspension of dough in simulated gastric fluid of pH 2.0. A 20 g sample was taken from the homogenous suspension for determination of total iron. The suspension was transferred to the vessel of a dissolution apparatus (VanK1 VK700, Varian; United States Pharmacopoeia (USP) dissolution apparatus, type II. Conditions for rotations per minute enzyme types and concentrations etc. taken as in the USP; <711> Dissolution; USP26/NF21; 2003; p. 1578-1579). […]
Dialyzable iron (sum of Fe^2+ and Fe^3+) was determined using a Hitachi 912 Analyser and reagents for the analysis of iron in human serum based on FerroZine (Roche Diagnostics Nederland BV). […]
Dialyzable iron is expressed as the percentage of the total iron present in the digest, assuming that it had equilibrated across the dialysis membrane by the time the content of the dialysis bag was collected.

Compound	Free ascorbic acid in the blood after consumption [1]	Intestinal absorption of intact compound [2]	In vitro dialyzable Ionic iron (% of total iron) ([3]; dough with 50 mg/Kg iron from ferrous sulphate, Fe:enhancer 1:3, means ± SD of 4 or 5 experiments)	Relative availability ([3]; relative to the availability of iron from FeSO4)
O=C1O[C@H]([C@@H](O)CO)C(O)=C1O[C@H]1O[C@H](CO)[C@@H](O)[C@H](O)[C@H]1O [AA-2G, 2-O-α-D-glucopyranosyl-L-ascorbic acid]	significant increase in free ascorbic acid in the blood	cannot be absorbed	–	–
O=S(=O)([O-])[O-].[Fe+2] [Ferrous sulphate, ferrous sulphate]	–	–	3.4 ± 1.8 % of total iron	1.0
